From patent US20220288051A1, “METHODS FOR TREATING CANCER USING SERIAL ADMINISTRATION OF E3 UBIQUITIN LIGASE DEGRADERS” (Dana-Farber Cancer Institute, Inc., priority 2019, published 2022)

Key:
BRD2 = target: T1, BRD2 (Homo sapiens, UniProt P25440); experiment: Immunoblotting of degronimid-treated MM.1S cells: BRD2; format: cell-based; details: 0.01-1 μM, 4 h
T1 construct: endogenous in cells; host or cells: MM.1S
Procedure: MM.1S cells were seeded in 6-well plates at 3×10^6 cells/well (˜24 h prior to addition of drug). […] Cell pellets were thawed on ice, lysed using RIPA buffer (ThermoFisher) with protease/phosphatase inhibitor cocktail (Cell Signal Technology, Danvers, Mass.) by incubating on ice 30 min. The lysates were clarified by spinning at 10,000 g for 10 min at 4° C. and the concentration of the lysate was determined using BCA protocol (ThermoFisher). Samples were prepared for Western blot using LDS sample buffer (NuPage, Invitrogen, Carlsbad, Calif., USA) with sample reducing agent (NuPage, Invitrogen) and heated to 95° C. for 5 min. Samples were loaded (20 ug/sample) into Tris-acetate or Bis-Tris gels (NuPage, Invitrogen) and run as per kit instructions using appropriate running buffers. Gels were transferred as described (Matthews et al., 2015) onto PVDF membrane using SDS-based transfer buffer (NuPage, Invitrogen). Membranes were blocked (5% skim milk; or 5% bovine serum albumin in TBS-T) for at least 30 min then probed with primary antibodies overnight (4° C.). […] Each protein of interest (BRD2, BRD3, BRD4, c-myc and CDK9) was assessed in a separate gel and corresponding membrane (which was simultaneously incubated with antibodies for both the target protein of interest and GAPDH, to provide a loading control within the same blot). […]

[1] = system: OPM1, OCI-MY5, KMS11 and OPM2 (shRNAs against CRBN); experiment: CTG viability of MM cell lines with low CRBN levels; format: cell-based, human; details: low but detectable CRBN, constitutive or shRNA
Source text: Human MM cell lines KMS11 and OPM-2 expressing non-targeting control shRNAs or shRNA.

T1 sequence (P25440 whole entry): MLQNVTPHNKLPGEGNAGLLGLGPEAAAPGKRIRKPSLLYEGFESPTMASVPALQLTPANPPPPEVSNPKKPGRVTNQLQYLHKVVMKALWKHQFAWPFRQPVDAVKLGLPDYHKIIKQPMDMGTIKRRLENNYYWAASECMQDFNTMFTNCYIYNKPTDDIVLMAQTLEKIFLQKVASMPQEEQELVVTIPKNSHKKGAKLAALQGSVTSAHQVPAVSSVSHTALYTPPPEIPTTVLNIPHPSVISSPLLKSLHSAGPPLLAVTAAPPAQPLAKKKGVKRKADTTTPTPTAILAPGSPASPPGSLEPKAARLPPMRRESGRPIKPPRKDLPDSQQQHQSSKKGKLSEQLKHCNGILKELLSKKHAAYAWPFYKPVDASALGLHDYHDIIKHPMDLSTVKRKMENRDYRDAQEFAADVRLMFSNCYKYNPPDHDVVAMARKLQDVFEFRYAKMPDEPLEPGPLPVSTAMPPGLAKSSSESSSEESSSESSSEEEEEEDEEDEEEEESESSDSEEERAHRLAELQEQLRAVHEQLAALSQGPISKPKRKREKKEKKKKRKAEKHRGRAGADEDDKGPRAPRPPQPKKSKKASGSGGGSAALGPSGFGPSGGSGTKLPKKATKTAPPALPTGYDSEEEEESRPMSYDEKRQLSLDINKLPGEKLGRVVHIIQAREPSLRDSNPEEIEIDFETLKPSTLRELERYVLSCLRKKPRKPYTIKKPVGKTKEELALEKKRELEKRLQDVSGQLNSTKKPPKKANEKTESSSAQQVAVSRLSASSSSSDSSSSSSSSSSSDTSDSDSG

Cc1sc2c(c1C)C(c1ccc(Cl)cc1)=N[C@@H](CC(=O)NCCCCCCCCNC(=O)COc1cccc3c1C(=O)N(C1CCC(=O)NC1=O)C3=O)c1nnc(C)n1-2 (some centres unmarked) [dBET6]
BRD2 protein levels (BRD2): rapid and robust depletion | response of lines with low CRBN levels [1]: remained responsive to dBET6
